Experimental data reported in ChEMBL document CHEMBL4507289, “Data for DCP probe GSM1” (2021).

Legend:
[1] = molecular target: Serine/threonine-protein kinase DCLK3 (Homo sapiens) (UniProt Q9C098); details: Compound concentration 1000.0 nM
[2] = molecular target: Rho-associated protein kinase 1 (Homo sapiens) (UniProt Q13464); details: Compound concentration 1000.0 nM
[3] = molecular target: Sigma non-opioid intracellular receptor 1 (Homo sapiens) (UniProt Q99720); details: Compound concentration 10.0 uM
Chain of Sigma non-opioid intracellular receptor 1 (Homo sapiens) (Q99720 whole entry): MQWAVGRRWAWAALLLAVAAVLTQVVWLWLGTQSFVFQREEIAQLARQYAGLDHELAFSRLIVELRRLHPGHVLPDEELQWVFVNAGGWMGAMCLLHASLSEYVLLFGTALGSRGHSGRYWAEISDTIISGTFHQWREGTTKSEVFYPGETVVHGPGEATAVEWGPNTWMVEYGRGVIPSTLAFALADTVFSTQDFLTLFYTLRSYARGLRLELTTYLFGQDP

[4] = molecular target: RAC-gamma serine/threonine-protein kinase (Homo sapiens) (UniProt Q9Y243); details: Compound concentration 1000.0 nM
[5] = molecular target: Muscarinic acetylcholine receptor M5 (Homo sapiens) (UniProt P08912); details: Compound concentration 10.0 uM
[6] = molecular target: Casein kinase I isoform alpha (Homo sapiens) (UniProt P48729); details: Compound concentration 1000.0 nM
Chain of Casein kinase I isoform alpha (Homo sapiens) (P48729 2-337 limits assumed): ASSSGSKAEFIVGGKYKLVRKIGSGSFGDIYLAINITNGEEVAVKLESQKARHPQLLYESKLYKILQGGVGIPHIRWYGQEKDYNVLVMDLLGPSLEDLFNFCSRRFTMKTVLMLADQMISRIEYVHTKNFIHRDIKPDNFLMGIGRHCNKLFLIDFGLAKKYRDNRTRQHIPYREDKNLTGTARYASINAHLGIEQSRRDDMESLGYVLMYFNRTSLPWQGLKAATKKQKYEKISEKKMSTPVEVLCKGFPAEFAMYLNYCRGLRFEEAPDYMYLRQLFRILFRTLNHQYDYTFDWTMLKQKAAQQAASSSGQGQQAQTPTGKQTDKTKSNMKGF

[7] = molecular target: Mitogen-activated protein kinase 11 (Homo sapiens) (UniProt Q15759); details: Compound concentration 1000.0 nM
[8] = molecular target: Cyclin-dependent kinase 3 (Homo sapiens) (UniProt Q00526); details: Compound concentration 1000.0 nM
Chain of Cyclin-dependent kinase 3 (Homo sapiens) (Q00526 whole entry, looked up): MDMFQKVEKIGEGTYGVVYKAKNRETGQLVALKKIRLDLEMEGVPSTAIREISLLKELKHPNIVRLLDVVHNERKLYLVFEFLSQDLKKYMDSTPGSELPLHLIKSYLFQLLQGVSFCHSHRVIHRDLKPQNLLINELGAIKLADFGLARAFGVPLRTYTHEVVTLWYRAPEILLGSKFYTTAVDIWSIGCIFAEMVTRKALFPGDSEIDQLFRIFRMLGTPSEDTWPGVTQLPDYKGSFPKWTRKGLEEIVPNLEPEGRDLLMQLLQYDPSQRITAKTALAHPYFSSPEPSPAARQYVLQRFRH

[9] = molecular target: Receptor tyrosine-protein kinase erbB-4 (Homo sapiens) (UniProt Q15303); details: Compound concentration 1000.0 nM
Chain of Receptor tyrosine-protein kinase erbB-4 (Homo sapiens) (Q15303 whole entry): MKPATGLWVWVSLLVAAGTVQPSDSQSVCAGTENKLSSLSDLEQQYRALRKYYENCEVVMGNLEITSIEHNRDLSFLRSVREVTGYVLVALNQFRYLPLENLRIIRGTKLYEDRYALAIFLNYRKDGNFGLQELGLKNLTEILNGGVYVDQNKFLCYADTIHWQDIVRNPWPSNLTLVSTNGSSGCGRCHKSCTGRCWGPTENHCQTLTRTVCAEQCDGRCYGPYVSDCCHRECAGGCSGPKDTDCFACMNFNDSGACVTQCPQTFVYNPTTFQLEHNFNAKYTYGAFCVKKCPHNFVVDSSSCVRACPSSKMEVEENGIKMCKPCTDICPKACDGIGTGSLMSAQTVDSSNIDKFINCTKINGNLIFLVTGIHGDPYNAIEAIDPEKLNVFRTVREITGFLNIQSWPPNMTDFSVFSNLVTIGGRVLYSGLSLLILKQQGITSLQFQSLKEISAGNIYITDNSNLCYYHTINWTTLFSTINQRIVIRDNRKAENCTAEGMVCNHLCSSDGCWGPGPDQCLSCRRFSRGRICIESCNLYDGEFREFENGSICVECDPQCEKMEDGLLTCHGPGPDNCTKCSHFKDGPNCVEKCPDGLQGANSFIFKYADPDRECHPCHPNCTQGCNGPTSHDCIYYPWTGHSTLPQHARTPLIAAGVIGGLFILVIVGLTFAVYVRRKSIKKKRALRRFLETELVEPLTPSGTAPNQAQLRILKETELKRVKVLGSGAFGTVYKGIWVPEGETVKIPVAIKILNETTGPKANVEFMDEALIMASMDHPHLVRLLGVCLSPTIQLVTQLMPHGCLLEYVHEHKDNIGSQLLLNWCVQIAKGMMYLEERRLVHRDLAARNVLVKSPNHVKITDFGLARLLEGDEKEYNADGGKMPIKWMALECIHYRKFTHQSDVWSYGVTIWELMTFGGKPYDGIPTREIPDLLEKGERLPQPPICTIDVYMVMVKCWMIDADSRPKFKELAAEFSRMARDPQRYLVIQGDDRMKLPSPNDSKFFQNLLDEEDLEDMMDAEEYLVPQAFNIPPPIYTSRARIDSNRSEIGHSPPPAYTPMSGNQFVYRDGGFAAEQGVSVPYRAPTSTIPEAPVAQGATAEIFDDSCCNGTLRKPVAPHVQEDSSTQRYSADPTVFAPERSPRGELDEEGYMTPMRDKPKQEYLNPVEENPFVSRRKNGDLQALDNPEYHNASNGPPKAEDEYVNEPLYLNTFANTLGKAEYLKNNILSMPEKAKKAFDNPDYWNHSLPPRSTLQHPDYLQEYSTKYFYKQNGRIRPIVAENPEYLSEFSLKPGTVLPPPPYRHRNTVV

[10] = molecular target: Mitogen-activated protein kinase 4 (Homo sapiens) (UniProt P31152); details: Compound concentration 1000.0 nM
[11] = molecular target: RAC-alpha serine/threonine-protein kinase (Homo sapiens) (UniProt P31749); details: Compound concentration 1000.0 nM
[12] = molecular target: 3-phosphoinositide-dependent protein kinase 1 (Homo sapiens) (UniProt O15530); details: Compound concentration 1000.0 nM
[13] = molecular target: Fibroblast growth factor receptor 1 (Homo sapiens) (UniProt P11362); details: Compound concentration 1000.0 nM
[14] = molecular target: Serine/threonine-protein kinase 25 (Homo sapiens) (UniProt O00506); details: Compound concentration 1000.0 nM
Chain of Serine/threonine-protein kinase 25 (Homo sapiens) (O00506 whole entry, looked up): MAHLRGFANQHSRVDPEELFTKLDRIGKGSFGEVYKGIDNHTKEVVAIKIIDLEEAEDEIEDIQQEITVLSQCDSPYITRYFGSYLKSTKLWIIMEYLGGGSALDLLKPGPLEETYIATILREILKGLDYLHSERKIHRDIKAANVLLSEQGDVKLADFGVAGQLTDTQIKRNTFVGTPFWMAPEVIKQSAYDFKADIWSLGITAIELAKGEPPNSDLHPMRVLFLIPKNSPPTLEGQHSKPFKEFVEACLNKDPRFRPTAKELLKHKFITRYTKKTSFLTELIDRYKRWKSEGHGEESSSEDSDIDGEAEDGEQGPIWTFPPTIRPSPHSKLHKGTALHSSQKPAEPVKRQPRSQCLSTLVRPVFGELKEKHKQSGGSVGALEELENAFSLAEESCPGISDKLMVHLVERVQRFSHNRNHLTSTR

[15] = molecular target: Cyclin-dependent kinase 18 (Homo sapiens) (UniProt Q07002); details: Compound concentration 1000.0 nM
[16] = tested on: Epidermal growth factor receptor (Homo sapiens), P00533 [UNDEFINED MUTATION]; details: Compound concentration 1000.0 nM
[17] = molecular target: Phosphatidylinositol 4-phosphate 5-kinase type-1 gamma (Homo sapiens) (UniProt O60331); details: Compound concentration 1000.0 nM
[18] = molecular target: Phosphatidylinositol 5-phosphate 4-kinase type-2 beta (Homo sapiens) (UniProt P78356); details: Compound concentration 1000.0 nM
[19] = molecular target: Ephrin type-A receptor 4 (Homo sapiens) (UniProt P54764); details: Compound concentration 1000.0 nM
[20] = molecular target: Wee1-like protein kinase (Homo sapiens) (UniProt P30291); details: Compound concentration 1000.0 nM
[21] = molecular target: Ephrin type-A receptor 6 (Homo sapiens) (UniProt Q9UF33); details: Compound concentration 1000.0 nM
[22] = molecular target: Mitogen-activated protein kinase kinase kinase 1 (Homo sapiens) (UniProt Q13233); details: Compound concentration 1000.0 nM
[23] = tested on: Phosphatidylinositol 4,5-bisphosphate 3-kinase catalytic subunit alpha isoform (Homo sapiens), P42336 [M1043I]; details: Compound concentration 1000.0 nM
[24] = molecular target: Mitogen-activated protein kinase 10 (Homo sapiens) (UniProt P53779); details: Compound concentration 1000.0 nM
[25] = tested on: Mast/stem cell growth factor receptor Kit (Homo sapiens), P10721 [A829P]; details: Compound concentration 1000.0 nM
Chain of Mast/stem cell growth factor receptor Kit (Homo sapiens), P10721 [A829P] (P10721 whole entry A829P): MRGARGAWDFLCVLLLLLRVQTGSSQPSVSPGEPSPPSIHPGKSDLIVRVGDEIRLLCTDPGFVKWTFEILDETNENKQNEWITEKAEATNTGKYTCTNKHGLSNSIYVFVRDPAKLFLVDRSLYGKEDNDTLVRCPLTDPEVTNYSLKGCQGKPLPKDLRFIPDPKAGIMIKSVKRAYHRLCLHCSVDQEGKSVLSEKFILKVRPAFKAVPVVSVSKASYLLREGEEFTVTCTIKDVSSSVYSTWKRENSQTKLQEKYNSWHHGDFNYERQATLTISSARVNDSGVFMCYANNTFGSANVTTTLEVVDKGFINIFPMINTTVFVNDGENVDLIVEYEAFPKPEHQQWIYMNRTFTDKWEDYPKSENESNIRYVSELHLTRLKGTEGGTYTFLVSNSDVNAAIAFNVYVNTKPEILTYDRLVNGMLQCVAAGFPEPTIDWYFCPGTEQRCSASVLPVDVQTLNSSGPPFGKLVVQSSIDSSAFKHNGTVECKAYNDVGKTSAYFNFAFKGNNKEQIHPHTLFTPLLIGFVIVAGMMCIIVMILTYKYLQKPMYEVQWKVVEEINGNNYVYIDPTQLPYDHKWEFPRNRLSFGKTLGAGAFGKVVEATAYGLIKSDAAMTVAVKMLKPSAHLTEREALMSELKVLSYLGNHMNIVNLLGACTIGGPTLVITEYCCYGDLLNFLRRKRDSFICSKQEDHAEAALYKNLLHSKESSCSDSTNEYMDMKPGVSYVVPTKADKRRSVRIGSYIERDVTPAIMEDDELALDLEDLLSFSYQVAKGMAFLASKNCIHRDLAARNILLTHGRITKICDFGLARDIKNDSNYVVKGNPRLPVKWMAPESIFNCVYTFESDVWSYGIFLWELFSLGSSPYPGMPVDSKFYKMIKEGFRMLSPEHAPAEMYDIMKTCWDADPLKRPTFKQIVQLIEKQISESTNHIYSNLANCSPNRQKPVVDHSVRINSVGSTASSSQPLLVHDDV

[26] = molecular target: Activated CDC42 kinase 1 (Homo sapiens) (UniProt Q07912); details: Compound concentration 1000.0 nM
[27] = molecular target: Interferon-induced, double-stranded RNA-activated protein kinase (Homo sapiens) (UniProt P19525); details: Compound concentration 1000.0 nM
[28] = molecular target: Serine/threonine-protein kinase 35 (Homo sapiens) (UniProt Q8TDR2); details: Compound concentration 1000.0 nM
[29] = molecular target: 1-phosphatidylinositol 3-phosphate 5-kinase (Homo sapiens) (UniProt Q9Y2I7); details: Compound concentration 1000.0 nM
[30] = molecular target: Ribosomal protein S6 kinase beta-1 (Homo sapiens) (UniProt P23443); details: Compound concentration 1000.0 nM
[31] = molecular target: Tyrosine-protein kinase Mer (Homo sapiens) (UniProt Q12866); details: Compound concentration 1000.0 nM
[32] = molecular target: Serine/threonine-protein kinase Nek1 (Homo sapiens) (UniProt Q96PY6); details: Compound concentration 1000.0 nM
[33] = molecular target: NUAK family SNF1-like kinase 2 (Homo sapiens) (UniProt Q9H093); details: Compound concentration 1000.0 nM
[34] = molecular target: Epidermal growth factor receptor (Homo sapiens) (UniProt P00533); details: Compound concentration 1000.0 nM
[35] = molecular target: Macrophage colony-stimulating factor 1 receptor (Homo sapiens) (UniProt P07333); details: Compound concentration 1000.0 nM
[36] = molecular target: Casein kinase II subunit alpha' (Homo sapiens) (UniProt P19784); details: Compound concentration 1000.0 nM
[37] = molecular target: Mast/stem cell growth factor receptor Kit (Homo sapiens) (UniProt P10721); details: Compound concentration 1000.0 nM
Chain of Mast/stem cell growth factor receptor Kit (Homo sapiens) (P10721 whole entry): as the sequence (P10721 whole entry A829P) above, with P829A counted along it

[38] = molecular target: Platelet-derived growth factor receptor beta (Homo sapiens) (UniProt P09619); details: Compound concentration 1000.0 nM
[39] = molecular target: Casein kinase I isoform gamma-3 (Homo sapiens) (UniProt Q9Y6M4); details: Compound concentration 1000.0 nM
[40] = tested on: Mast/stem cell growth factor receptor Kit (Homo sapiens), P10721 [V559D,T670I]; details: Compound concentration 1000.0 nM
Chain of Mast/stem cell growth factor receptor Kit (Homo sapiens), P10721 [V559D,T670I] (P10721 whole entry V559D/T670I): as the sequence (P10721 whole entry A829P) above, with V559D, T670I, P829A counted along it

[41] = molecular target: Receptor-interacting serine/threonine-protein kinase 4 (Homo sapiens) (UniProt P57078); details: Compound concentration 1000.0 nM
[42] = molecular target: Tyrosine-protein kinase JAK1 (Homo sapiens) (UniProt P23458); details: Compound concentration 1000.0 nM
Chain of Tyrosine-protein kinase JAK1 (Homo sapiens) (P23458 whole entry): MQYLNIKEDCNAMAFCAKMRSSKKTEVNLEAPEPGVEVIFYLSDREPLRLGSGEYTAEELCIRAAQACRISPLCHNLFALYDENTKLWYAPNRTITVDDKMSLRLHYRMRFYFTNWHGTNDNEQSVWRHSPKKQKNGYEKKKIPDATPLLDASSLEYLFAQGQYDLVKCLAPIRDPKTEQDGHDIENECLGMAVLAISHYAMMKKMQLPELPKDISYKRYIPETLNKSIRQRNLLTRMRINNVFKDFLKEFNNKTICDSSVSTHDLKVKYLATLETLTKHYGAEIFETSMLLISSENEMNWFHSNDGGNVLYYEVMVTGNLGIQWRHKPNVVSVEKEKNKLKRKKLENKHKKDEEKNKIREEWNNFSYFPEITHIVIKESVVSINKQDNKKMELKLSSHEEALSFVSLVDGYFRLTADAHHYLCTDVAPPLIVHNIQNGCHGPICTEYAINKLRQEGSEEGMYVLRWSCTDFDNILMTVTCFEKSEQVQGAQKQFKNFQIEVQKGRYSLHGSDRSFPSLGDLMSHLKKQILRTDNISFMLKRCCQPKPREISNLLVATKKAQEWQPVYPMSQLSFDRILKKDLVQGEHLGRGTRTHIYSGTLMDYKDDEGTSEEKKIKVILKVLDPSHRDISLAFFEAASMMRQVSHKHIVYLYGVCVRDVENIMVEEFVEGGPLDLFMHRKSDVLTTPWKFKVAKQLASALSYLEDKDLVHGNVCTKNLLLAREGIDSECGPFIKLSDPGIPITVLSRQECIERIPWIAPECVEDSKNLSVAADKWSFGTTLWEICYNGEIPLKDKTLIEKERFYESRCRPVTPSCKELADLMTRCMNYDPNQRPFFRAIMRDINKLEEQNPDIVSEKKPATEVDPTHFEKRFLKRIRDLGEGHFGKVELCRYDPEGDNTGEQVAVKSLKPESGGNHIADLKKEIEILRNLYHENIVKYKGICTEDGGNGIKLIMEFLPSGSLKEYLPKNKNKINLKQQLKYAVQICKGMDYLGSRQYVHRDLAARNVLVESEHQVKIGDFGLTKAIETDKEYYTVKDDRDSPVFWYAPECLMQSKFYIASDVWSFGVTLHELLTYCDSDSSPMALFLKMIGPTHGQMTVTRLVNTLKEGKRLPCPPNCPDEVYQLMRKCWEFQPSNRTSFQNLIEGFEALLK

[43] = molecular target: Ephrin type-A receptor 1 (Homo sapiens) (UniProt P21709); details: Compound concentration 1000.0 nM
[44] = molecular target: 5'-AMP-activated protein kinase catalytic subunit alpha-1 (Homo sapiens) (UniProt Q13131); details: Compound concentration 1000.0 nM
[45] = molecular target: Mitogen-activated protein kinase kinase kinase 20 (Homo sapiens) (UniProt Q9NYL2); details: Compound concentration 1000.0 nM

Compound `COc1cc(-c2cn([C@H]3CCc4ccccc4N(CC(F)(F)F)C3=O)nn2)ccc1-n1ccc(C)n1` has a residual activity [1] of 100%, a residual activity [2] of 100% and an inhibition [3] of 23.2%. It also gave a residual activity [4] of 89%, an inhibition [5] of 0.39% and a residual activity [6] of 98%. For the same compound, the residual activity [7] was 82%, the residual activity [8] was 100% and the residual activity [9] was 100%. It also gave a residual activity [10] of 99%, a residual activity [11] of 97% and a residual activity [12] of 100%. It also gave a residual activity [13] of 99%, a residual activity [14] of 100% and a residual activity [15] of 100%. It also gave a residual activity [16] of 100%, a residual activity [17] of 100% and a residual activity [18] of 65%. For the same compound, the residual activity [19] was 92%, the residual activity [20] was 100% and the residual activity [21] was 98%. For the same compound, the residual activity [22] was 72%, the residual activity [23] was 100% and the residual activity [24] was 61%. The residual activity [25] was 68%, the residual activity [26] was 100% and the residual activity [27] was 87%. The residual activity [28] was 100%, the residual activity [29] was 100% and the residual activity [30] was 100%. It also gave a residual activity [31] of 100%, a residual activity [32] of 100% and a residual activity [33] of 88%. The residual activity [34] was 100%, the residual activity [35] was 93% and the residual activity [36] was 84%. It also gave a residual activity [37] of 100%, a residual activity [38] of 100% and a residual activity [39] of 86%. The residual activity [40] was 92%, the residual activity [41] was 52% and the residual activity [42] was 80%. For the same compound, the residual activity [43] was 89%, the residual activity [44] was 100% and the residual activity [45] was 85%.
`COc1cc(-c2cn([C@H]3CCc4c(F)cccc4N(CC(F)(F)F)C3=O)nn2)ccc1-n1cnc(C)c1` gave a residual activity [1] of 100%, a residual activity [2] of 100% and an inhibition [3] of 26.6%. The residual activity [4] was 100%, the inhibition [5] was 26.1% and the residual activity [6] was 100%. For the same compound, the residual activity [7] was 90%, the residual activity [8] was 100% and the residual activity [9] was 100%. The residual activity [10] was 89%, the residual activity [11] was 96% and the residual activity [12] was 93%. The residual activity [13] was 100%, the residual activity [14] was 100% and the residual activity [15] was 100%. For the same compound, the residual activity [16] was 0%, the residual activity [17] was 90% and the residual activity [18] was 73%. For the same compound, the residual activity [19] was 100%, the residual activity [20] was 79% and the residual activity [21] was 100%. It also gave a residual activity [22] of 100%, a residual activity [23] of 100% and a residual activity [24] of 72%. It also gave a residual activity [25] of 92%, a residual activity [26] of 100% and a residual activity [27] of 100%. The residual activity [28] was 100%, the residual activity [29] was 100% and the residual activity [30] was 100%. For the same compound, the residual activity [31] was 100%, the residual activity [32] was 100% and the residual activity [33] was 100%. The residual activity [34] was 100%, the residual activity [35] was 100% and the residual activity [36] was 100%. The residual activity [37] was 100%, the residual activity [38] was 100% and the residual activity [39] was 86%. It also gave a residual activity [40] of 94%, a residual activity [41] of 56% and a residual activity [42] of 100%. It also gave a residual activity [43] of 100%, a residual activity [44] of 100% and a residual activity [45] of 100%.
